Assay results published in patent US20250170252A1, “QUINONE PROTECTED FORMS AND CONJUGATES” (CAMBRIDGE ENTERPRISE LIMITED, priority 2022, published 2025).

Key:
[1] = In vitro redox-cycling ability, phenol red/horseradish peroxidase assay; assay type: biochemical; conditions: HRP/phenol-red reporter assay, absorbance at 610 nm; up to 25 μM
Description: In vitro redox cycling capability of compounds was assessed by phenol red/horseradish peroxidase (HRP) assay by adaption of a previously described protocol (Assay Drug Dev. Technol., 2008, 6, 505-518). Briefly, stocks were prepared as follows: (1) DTT to a concentration of 2.4 μM in PBS pH 7.4 buffer; (2) compound stocks in PBS pH 7.4 buffer to 3× the desired concentration by 1000× dilution of DMSO stocks; (3) a stock of phenol-red-HRP detection reagent containing 300 μg/mL phenol red and 180 μg/mL HRP enzyme in PBS pH 7.4 buffer; (4) a stock of 1 M NaOH in water; (5) a stock of 100 μM H2O2 in PBS prepared by addition of a 30% solution of H2O2 in water into 1000 μL of PBS. Into each well of a 96 well clear flat-bottomed plate was then added 40 μL of compound stock in PBS followed by 40 μL of DTT stock, followed immediately by 40 μL of phenol-red-HRP reagent. A positive control with 100 μM H2O2 added in place of compound was included. The plate was incubated in the dark at room temperature for 15 min. Following this 20 μL of 1 M NaOH was added to each well to terminate the reaction. Absorbance was immediately measured at 610 nm (MiniMax i3x Imager, Molecular Devices). Absorbance of treated wells was normalised to control wells treated with PBS only (zero redox cycling). All readings were performed in triplicate and error bars display standard error of the mean.

MOLM-13 = test: Viability assay with small molecule prodrugs, Trypan Blue exclusion, MOLM-13; assay type: cell-based; conditions: 5 μM, 24 h timepoint
Description: For assays assessing cytotoxicity of β-lapachone versus small molecule dipeptide prodrugs, suspension cells were plated into 24 well plates at a density of 2.5×10^5 cells/mL in 240 μL. Serial dilutions of compound were made up in PBS. 60 μL of each stock of either PBS, or compound in PBS was added to the cells to achieve the desired final concentration. After the specified incubation time, toxicity was assessed by counting of live cells using the Trypan Blue exclusion method with a Countess II Automated Cell Counter (ThermoFisher Scientific) according to the manufacturer's instructions. Cell viability was determined by division of average live cell number of treated wells by average live cell number for control wells treated with PBS only. Values recorded are the mean of three repeat wells, with error bars representing the standard error of the mean for each concentration tested. IC50 values were calculated using GraphPad Prism software.

For CC1(C)CCC2=C(O1)c1ccccc1C(=O)C2=O [Compound 1, β-lapachone, reference compound], the “redox activity (in vitro redox-cycling capability)” value [1] was “saturates the assay above 10 μM concentration” and the “toxicity to MOLM-13” value (MOLM-13) was “complete cell death”.
